Reference: US20230055457A1, “CELL EXPANSION METHODS FOR PREVENTING CELL SENESCENCE AND PRESERVING THE THERAPEUTIC POTENCY OF HUMAN MESENCHYMAL STEM CELLS” (THE FLORIDA STATE UNIVERSITY RESEARCH FOUNDATION, INC., priority 2020, published 2023)
Entries after “also recorded” stand apart in the source; their conditions may differ.

Columns and labels:
senescent hMSCs [1] = assay: Intracellular NAD+ and NADH level of hMSCs; format: cell-based, human
Experimental: (§1) hMSCs at passage 2 were expanded and cultured in complete culture medium(CCM). Cells were grown to 70-80% confluence and then harvested by incubation with 0.25% trypsin/EDTA. Harvested cells were re-plated at a density of 2,000 cells/cm^2 and sub-cultured up to Passage 12 in a standard CO2 incubator. hMSC sat Passage 5 (P5) and passage 12 (P12) were used for experiments. Stem cell properties including senescence, stem cell gene, cell cycle, proliferation rate were determined. Gas chromatography-mass spectrometry (GC-MS) and seahorse flux analyzer were used for characterization of energy metabolism phenotype. Mitochondrial functions were assessed by mitochondrial mass, membrane potential, electron transport complex activity and biogenesis. NAD+/NADH and Sirt-1 and -3 level was also measured in P5 and P12 hMSCs. NAD+ precursor nicotinamide (NAM) was used in CCM to adjust NAD+ level intracellularly.

senescent hMSCs [2] = assay: Cellular senescence by SA-β-Gal activity assay; format: cell-based, human; settings: senescent hMSCs with NAM treatment
Experimental: Cellular senescence was evaluated by SA-β-Gal activity assay kit (Sigma, St. Louis, Mo.) as described in manufacture instructions.

senescent hMSCs [3] = assay: Colony forming unit-fibroblast (CFU-F) assay; format: cell-based, human; settings: senescent hMSCs with NAM treatment
Experimental: Colony forming unit-fibroblast (CFU-F) were determined as following: hMSCs were harvested and re-plated at the density of 15 cells/cm2 on 60 cm2 culture dish and cultured for another 14 days in CCM. Cells were then stained with 20% crystal violet solution in methanol for 15 minutes at room temperature (RT) and washed with phosphate-buffered saline (PBS) wash, the numbers of individual colonies were counted manually.

senescent hMSCs [4] = assay: Basal autophagy by Cyto-ID Green flow cytometry; format: cell-based, human; settings: senescent hMSCs with NAM treatment
Experimental: (§2) For autophagy measurement, aliquots of cell suspension were incubated with 20 μM Cyto-ID Green (Enzo Life Sciences, Farmingdale, N.Y.), a fluorescent dye that selectively labels accumulated autophagic vacuoles, at 37° C. for 30 minutes, and analyzed by flow cytometry (BD Biosciences, San Jose, Calif.). For mitophagy measurement, […]

senescent hMSCs [5] = assay: Mitochondrial membrane potential (MMP), TMRM flow cytometry; format: cell-based, human; settings: senescent hMSCs with NAM treatment
Experimental: For MMP measurement, trypsinized MSCs were washed by centrifugation in warm Hank's Balanced Salt Solution (HBSS). Cell suspension was incubated with tetramethylrhodamine, methyl ester (TMRM) (Molecular Probe, Eugene, Oreg.) at 37° C., washed with HBSS, and analyzed by flow cytometry (BD Biosciences, San Jose, Calif.).

[6] = test system: electron transport chain complex I; assay: Mitochondrial complex I (ETC-I) activity; format: cell-based, human; settings: senescent hMSCs with NAM treatment
Experimental: hMSCs were centrifuged, re-suspended in DI water, and heated immediately in a boiling water bath for 15 minutes. The mixture was centrifuged and ATP containing supernatant was collected. Upon measurement, 10 μL of ATP solution was mixed with 100 μL of the luciferin-luciferase reagent, and the bioluminescent signal was measured using an Orion Microplate Luminometer (Bad Wildbad, Deutschland) after 15 min incubation at room temperature. Activity of mitochondrial complex I was determined using the Complex I Enzyme Activity Microplate Assay Kit (Abcam, Cambridge, Mass.) according to the kit instructions.

senescent hMSCs [7] = assay: Mitophagy measurement; format: cell-based, human; settings: senescent hMSCs with NAM treatment
Experimental: as §2

hMSC = assay: Mitochondrial fitness of hMSCs; format: cell-based, human
Experimental: as §1

[8] = test system: muscle stem cells (muscle-SCs) and hematopoietic stem cells (HSC); settings: aged muscle-SCs and HSCs, restoring autophagy; cited from earlier work
[9] = continuous supplement of NAM (1 mM), FIG. 17

NC(=O)c1ccc[n+]([C@@H]2O[C@H](CO)[C@@H](O)[C@H]2O)c1 [NR, nicotinamide riboside]
boosting NAD+/NADH ratio, NAM compared with NR (senescent hMSCs [1]; stem cells in culture, FIG. 16): no significant difference | boosting intracellular NAD+ level, NAM compared with NR (senescent hMSCs [1]; stem cells in culture, FIG. 16): no significant difference

NC(=O)c1ccc[n+]([C@@H]2O[C@H](COP(=O)([O-])O)[C@@H](O)[C@H]2O)c1 [NMN, nicotinamide mononucleotide]
boosting intracellular NAD+ level, NAM compared to NMN (senescent hMSCs [1]; stem cells in culture, FIG. 16): NAM is better

NC(=O)c1cccnc1 [NAM, nicotinamide]
hMSC cellular NAD+ level (senescent hMSCs [1]; [9]): maintains | Cellular NAD+ level (senescent hMSCs [1]; late passage hMSCs with culture-induced senescence, 96 h of NAM treatment): significantly increased; also recorded: potential improvement | boosting intracellular NAD+ level, NAM compared to NMN (senescent hMSCs [1]; stem cells in culture, FIG. 16): better | boosting intracellular NAD+ level, NAM compared with NR (senescent hMSCs [1]; stem cells in culture, FIG. 16): no significant difference | hMSC senescence, SA-β-gal activity (senescent hMSCs [2]): decreased; also recorded: reduced | colony forming ability (senescent hMSCs [3]; in words): improved | colony forming ability of hMSCs (CFU-F) (senescent hMSCs [3]; control 3 CFU): 11 CFU | Basal autophagy level (senescent hMSCs [4]): restored; also recorded: increased | mitochondrial membrane potential (MMP) (senescent hMSCs [5]): enhanced; also recorded: increased | ETC-I activity [6]: enhanced; also recorded: increased | mitophagy (senescent hMSCs [7]): restored; also recorded: increased | mitochondrial fitness (hMSC; [9]): maintains | recovery of mitochondria (hMSC; senescent hMSCs, supplement of NAM): recovery

NCCCCNCCCN [spermidine]
stem cell functions in vivo [8]: restored
